From article PMC7934871 (JCI Insight, 2021)

How the values were obtained:
pY694-STAT5 = assay: Western blotting of p-STAT5 in HCT116 cells; format: cell-based, human; settings: HCT116, 1 µM, 48 hours
Method: (§1) Whole cell lysates or tissue homogenates were prepared by using RIPA lysis buffer (50 mM Tris at pH 7.4, 150 mM NaCl, 1 mM EDTA, 0.5% NP-40, 1 mM NaF, 15% glycerol, and 20 mM β-glycerophosphate). A protease inhibitor cocktail (Mini Protease Inhibitor Cocktail; Roche) and a tyrosine phosphatase inhibitor, sodium orthovanadate (Na3VO4, 1 mM), were added freshly to the lysis buffer. Protein amounts were determined by BCA using a Thermo Fisher Scientific kit. Normalized protein amounts were subjected to an SDS-PAGE and transferred onto a nitrocellulose membrane for Western blotting. Proteins were visualized with a chemiluminescent detection kit (Pierce, Thermo Fisher Scientific). The protein levels for STAT1 (sc-346, E-23), STAT3 (sc-482, C-20), STAT5 (sc-74442, A-9), Crm1 (exportin 1) (sc-5595, H-300), CAS (exportin 2) (sc-271537, H-2), exportin 5 (sc-66885, H-300), and exportin 7 (sc-98639, H-82) were determined using antibodies from Santa Cruz Biotechnology Inc. Anti–exportin 3 (exportin T, 630622, LOS1 05-1525), anti–exportin 4 (3499-1), and anti–exportin 6 (11408-1-AP) were from MilliporeSigma, Epitomics, and Proteintech, respectively. […]
(§2) Supplemental Figure 4 (related to Figure 1). […] Phosphorylation of STAT3 at Y705 and STAT5 at Y694 was detected by Western blotting after 48 hours treatment of PS-acet.-STAT3 peptide (1 µM) or napabucasin (1 µM) in HCT116 cells. […]

pY705-STAT3 = assay: Western blotting of p-STAT3 in HCT116 cells; format: cell-based, human; settings: HCT116, 1 µM, 48 hours
From the text: Figure 3 PS-acet.-STAT3 peptide inhibits STAT3 activity and downregulates the expression of STAT3 targets. (A) Downregulation of STAT3 activity and its downstream target proteins shown in human HCT116 colorectal cancer cells by Western blotting (data represent 1 of the 3 experiments, n = 3). PO-acet.-STAT3 and PS-STAT3-K685R peptides were used in parallel as controls. (B) STAT3 inhibition regulated the expression of proliferation and apoptotic genes, assessed by real-time quantitative PCR. Data present mean ± SD, n = 3 independent experiments, 1-way ANOVA; ***P < 0.005; **P < 0.01. […] For p53 promoter assay, data represent 3 replicates in 3 independent experiments (n = 9). For cell proliferation assay, data represent 3 independent experiments. SD is shown (n = 3). One-way ANOVA; ***P < 0.005; **P < 0.01.
as §1, with “Proteins were visualized with a chemiluminescent detection kit (Pierce, Thermo Fisher Scientific).” left out
as §2

HCT116 xenograft tumors = assay: HCT116 xenograft in NSG mice, peritumoral treatment; format: in vivo, mouse; settings: HCT116 s.c. in NSG mice, 1 mg/kg peritumoral every day, n = 4
Method: Mouse care and experimental procedures were performed under pathogen-free conditions in accordance with established institutional guidance and approved IACUC protocols from Research Animal Care Committee of the City of Hope. For s.c. tumor challenge, 5 × 10^6 HCT116 cells were injected into NSG mice from The Jackson Laboratory or animal resource core facility at the City of Hope. After tumors reached an average size of 80~100 mm^3, mice were locally or intravenously treated with 1 mg/kg of PO- or PS-peptides (Anaspec) every day or every other day. Control animals were treated with the equal volume of HBSS (Invitrogen, Thermo Fisher Scientific). Tumor growth was measured by a digital caliper every other day. […] Lungs were then analyzed for immune responses by immunostaining followed by confocal imaging. […] Tumor growth was measured by a digital caliper every other day. […]
(B) PS-acet.-STAT3 peptide downregulates STAT3 phosphorylation, assessed by Western blotting using tumor homogenates prepared from tumors shown in A.
(C) mRNA levels for CASP9, BIRC5 and BCL2L1 in the same tumor tissues described above were assessed by qRT-PCR. […]
(D) Treatments with PS-acet.-STAT3 peptide induced cell death, indicated by H&E staining (upper panel). […] Right panels represent quantification of Ki-67 protein levels and mean of vessel diameter (data include 5 fields of view per group). […]

[1] = Systemic toxicity in mice; format: in vivo; settings: 1 mg/kg i.v. every other day for 3 weeks, n = 3
Method: To evaluate the potential toxicity associated with systemic treatments of PS-peptide, PS-acet.-STAT3 peptide, PS-oligo, naive peptide, and PO- or PS-acet.-STAT3 peptide were given to the mice at 1 mg/kg through i.v. every other day for 3 weeks.
Supplemental Figure 10 (related to Figure 3). The systemic toxicity of PS-acet.-peptide.
The bodyweight (A), blood count (B) and organ morphology (H&E staining; spleen, kidney and liver) (C) of the mice (n=3) treated with HBSS (1), PS-oligo (2), naïve peptide (3), PO-peptide (4) or PS-peptide (5) every other day at 1 mg/kg (per treatment) for 3 weeks.
Individual value of each mouse is shown as a dot on the graph. The red lines on each graph in (B) indicate the normal ranges. Blood count was done by a veterinary hematology analyzer. The images shown in (C) are the represented H&E section from three mice (n=3). Enlarged view are shown below as indicated. Scale bar, 50 µm.
Aftabizadeh and Li et al., Figure S10

B16 melanoma = B16 melanoma lung metastasis in C57BL/6 mice; format: in vivo, mouse; settings: B16 i.v. in C57BL/6 mice, 1 mg/kg i.v. every other day, gp100 staining, n = 5
From the text: Figure 7 PS-acet.-STAT3 peptide treatment efficiently reduces mouse melanoma lung metastasis. (A) Systemic PS-acet.-STAT3 peptide treatment reduces B16 lung nodules in syngeneic mouse model compared with control treatments. The B16 lung nodules in mice treated with the indicated STAT3 peptides and vehicle (n = 5) were visualized by IF staining of gp100 and quantified by confocal microscopy and Zen software. The levels of phosphorylation of STAT3 (p-STAT3), CD69, and Foxp3 in the tumor or tumor-infiltrating CD8^+ T or CD4^+ T cells were detected by IF staining followed by confocal microscopy in B16 metastatic lung nodules upon treatments with vehicle, PO- or PS-acet.-STAT3, PS-STAT3-K685R, or PS-unacet.-STAT3 peptides as indicated. Images are representative of 5 lungs per experimental group. Scale bars: 20 μm (CD69, CD8, CD4, p-STAT3, and Foxp3) and 100 μm (gp100). White arrows indicate the immune cells. Insets: original magnification, ×40. (B) The graphs show the quantification of gp100 and p-STAT3 expression levels (MFI) or the cell population (%) of CD69^+ in CD8^+ or p-STAT3^+ in CD4^+ or Foxp3^+ in CD4^+ (data represent 5 lungs per group, n = 5). SD is shown. One-way ANOVA; ****P < 0.001.
Mouse care and experimental procedures were performed under pathogen-free conditions in accordance with established institutional guidance and approved IACUC protocols from Research Animal Care Committee of the City of Hope. For s.c. tumor challenge, 5 × 10^6 HCT116 cells were injected into NSG mice from The Jackson Laboratory or animal resource core facility at the City of Hope. After tumors reached an average size of 80~100 mm^3, mice were locally or intravenously treated with 1 mg/kg of PO- or PS-peptides (Anaspec) every day or every other day. Control animals were treated with the equal volume of HBSS (Invitrogen, Thermo Fisher Scientific). Tumor growth was measured by a digital caliper every other day. To study the effects of the modified peptides at protein and gene levels, mice were euthanized 4–6 weeks after tumor injection. B16 melanoma lung metastasis was performed by injecting 0.5 × 10^6 B16 cells into bloodstream of C57BL/6 mice (The Jackson Laboratory). One day after tumor challenge, mice were treated intravenously (retro-orbitally) with 1 mg/kg of PO- or PS-acet.-STAT3, PS-unacet.-STAT3, or PS-STAT3-K685R peptides every other day until the endpoint as indicated. Control mice were treated with HBSS. Lungs were excised from the mice, and B16 nodules were visualized by gp100 staining. Lungs were then analyzed for immune responses by immunostaining followed by confocal imaging. For mouse PDAC model, 5 × 10^6 KPC mouse cells were mixed with Matrigel and subcutaneously injected into C57BL/6 mice (The Jackson Laboratory). After tumors reached an average size of 80~100 mm^3, mice were intravenously treated with 1 mg/kg of PO- or PS-Gp130, PS-oligo, PS-SC-MYC, PS-MYC. or combined PS-Gp130/PS-MYC (0.5 mg/kg, 0.5 mg/kg) (Anaspec) every other day for 18 days. Control animals were treated with the equal volume of HBSS (Invitrogen, Thermo Fisher Scientific). Tumor growth was measured by a digital caliper every other day. To study the effects of the modified peptides at protein and gene levels, mice were euthanized at the endpoint as indicated.

Molecule | p-STAT5 (Y694) level (pY694-STAT5) | phosphorylated STAT3 (p-STAT3, Y705) level (pY705-STAT3) | tumor growth (HCT116 xenograft tumors) | behavior, body weight, blood counts [1] | morphology and cell death in liver, spleen, kidney tissues (H&E) [1] | metastatic lung nodules (B16 melanoma)
CC(=O)c1cc2c(o1)C(=O)c1ccccc1C2=O [napabucasin, reference compound] | inhibited | inhibited | – | – | – | –
PDIPKEEAFGK685(Ac)YCRPESQEHPC-linker-TCCATGAGCTTCCTGATGCT [PO-acet.-STAT3 peptide] | – | – | not | No behavior changes, body weight loss, or abnormal blood counts | no significant morphology change or cell death | few antitumor effects
